Patent US8198462B2, “Dendritic photoactive compound comprising oxime ester and method for preparing the same” (LG Chem, Ltd., priority 2007, dated 2012)

Assay: Solubility of the photoinitiator in frequently used organic solvents
Type: physicochemical
Details: solvent 3-methoxybutyl acetate (MBA)
Procedure: For the comparison of the solubility of the compound that comprises oxime ester, in conjunction with Irgacure OXE-02 (Comparative Example 1) of Ciba Specialty Chemical, the solubilities of the compounds of Examples were measured in respects to the solvents that were frequently used, such as propylene glycol methyl ether acetate (PGMEA), dipropylene glycol methyl ether (DPM), 3-methoxybutyl acetate (MBA), ethyl-3-ethoxy propionate (EEP), and cyclohexanone (CH). The solubility was measured on the basis of how many grams of the photoinitiator were dissolved in 100 g of the solvent, and the results are described in the following Table 1.

| Solubility in 3-MBA | Structure (SMILES) |
| --- | --- |
| 10 grams in 100 g of the solvent | CCn1c2ccc(C(=O)c3ccccc3C)cc2c2cc(/C(C)=N/OC(C)=O)ccc21 [Comparative Example 1, reference compound] |
| 50 or more grams in 100 g of the solvent | CC(=O)O/N=C(\CC(c1ccc(C(C/C(=N\OC(C)=O)c2ccccc2)N(OC(C)=O)C(C)=O)cc1)N(OC(C)=O)C(C)=O)c1ccccc1 (stereo not drawn) [Example 1] |
| 50 or more grams in 100 g of the solvent | CSc1ccc(C(C/C(=N\OC(C)=O)c2ccc(/C(CC(c3ccc(SC)cc3)N(OC(C)=O)C(C)=O)=N/OC(C)=O)cc2)N(OC(C)=O)C(C)=O)cc1 (stereo not drawn) [Example 2] |
| 50 or more grams in 100 g of the solvent | CCn1c2ccc(/C(CC(c3ccccc3)N(OC(C)=O)C(C)=O)=N/OC(C)=O)cc2c2cc(/C(CC(c3ccccc3)N(OC(C)=O)C(C)=O)=N/OC(C)=O)ccc21 (stereo not drawn) [Example 3] |
| 30 grams in 100 g of the solvent | CCn1c2ccc(/C(CC(c3cccs3)N(OC(C)=O)C(C)=O)=N/OC(C)=O)cc2c2cc(/C(CC(c3cccs3)N(OC(C)=O)C(C)=O)=N/OC(C)=O)ccc21 (stereo not drawn) [Example 4] |
| 50 or more grams in 100 g of the solvent | CCn1c2ccc(/C(CC(c3ccc(SC)cc3)N(OC(C)=O)C(C)=O)=N/OC(C)=O)cc2c2cc(/C(CC(c3ccc(SC)cc3)N(OC(C)=O)C(C)=O)=N/OC(C)=O)ccc21 (stereo not drawn) [Example 5] |

Same assay, conditions: solvent cyclohexanone (CH)

| Structure (SMILES) | Solubility in CH |
| --- | --- |
| CCn1c2ccc(C(=O)c3ccccc3C)cc2c2cc(/C(C)=N/OC(C)=O)ccc21 [Comparative Example 1, reference compound] | 40 grams in 100 g of the solvent |
| CC(=O)O/N=C(\CC(c1ccc(C(C/C(=N\OC(C)=O)c2ccccc2)N(OC(C)=O)C(C)=O)cc1)N(OC(C)=O)C(C)=O)c1ccccc1 (stereo not drawn) [Example 1] | 100 or more grams in 100 g of the solvent |
| CSc1ccc(C(C/C(=N\OC(C)=O)c2ccc(/C(CC(c3ccc(SC)cc3)N(OC(C)=O)C(C)=O)=N/OC(C)=O)cc2)N(OC(C)=O)C(C)=O)cc1 (stereo not drawn) [Example 2] | 100 or more grams in 100 g of the solvent |
| CCn1c2ccc(/C(CC(c3ccccc3)N(OC(C)=O)C(C)=O)=N/OC(C)=O)cc2c2cc(/C(CC(c3ccccc3)N(OC(C)=O)C(C)=O)=N/OC(C)=O)ccc21 (stereo not drawn) [Example 3] | 100 or more grams in 100 g of the solvent |
| CCn1c2ccc(/C(CC(c3cccs3)N(OC(C)=O)C(C)=O)=N/OC(C)=O)cc2c2cc(/C(CC(c3cccs3)N(OC(C)=O)C(C)=O)=N/OC(C)=O)ccc21 (stereo not drawn) [Example 4] | 100 or more grams in 100 g of the solvent |
| CCn1c2ccc(/C(CC(c3ccc(SC)cc3)N(OC(C)=O)C(C)=O)=N/OC(C)=O)cc2c2cc(/C(CC(c3ccc(SC)cc3)N(OC(C)=O)C(C)=O)=N/OC(C)=O)ccc21 (stereo not drawn) [Example 5] | 100 or more grams in 100 g of the solvent |

Same assay, conditions: solvent dipropylene glycol methyl ether (DPM)

| Solubility in DPM | Structure (SMILES) |
| --- | --- |
| 5 grams in 100 g of the solvent | CCn1c2ccc(C(=O)c3ccccc3C)cc2c2cc(/C(C)=N/OC(C)=O)ccc21 [Comparative Example 1, reference compound] |
| 50 or more grams in 100 g of the solvent | CC(=O)O/N=C(\CC(c1ccc(C(C/C(=N\OC(C)=O)c2ccccc2)N(OC(C)=O)C(C)=O)cc1)N(OC(C)=O)C(C)=O)c1ccccc1 (stereo not drawn) [Example 1] |
| 50 or more grams in 100 g of the solvent | CSc1ccc(C(C/C(=N\OC(C)=O)c2ccc(/C(CC(c3ccc(SC)cc3)N(OC(C)=O)C(C)=O)=N/OC(C)=O)cc2)N(OC(C)=O)C(C)=O)cc1 (stereo not drawn) [Example 2] |
| 50 or more grams in 100 g of the solvent | CCn1c2ccc(/C(CC(c3ccccc3)N(OC(C)=O)C(C)=O)=N/OC(C)=O)cc2c2cc(/C(CC(c3ccccc3)N(OC(C)=O)C(C)=O)=N/OC(C)=O)ccc21 (stereo not drawn) [Example 3] |
| 25 grams in 100 g of the solvent | CCn1c2ccc(/C(CC(c3cccs3)N(OC(C)=O)C(C)=O)=N/OC(C)=O)cc2c2cc(/C(CC(c3cccs3)N(OC(C)=O)C(C)=O)=N/OC(C)=O)ccc21 (stereo not drawn) [Example 4] |
| 50 or more grams in 100 g of the solvent | CCn1c2ccc(/C(CC(c3ccc(SC)cc3)N(OC(C)=O)C(C)=O)=N/OC(C)=O)cc2c2cc(/C(CC(c3ccc(SC)cc3)N(OC(C)=O)C(C)=O)=N/OC(C)=O)ccc21 (stereo not drawn) [Example 5] |

Same assay, conditions: solvent ethyl-3-ethoxy propionate (EEP)

| Solubility in EEP | Structure (SMILES) |
| --- | --- |
| 10 grams in 100 g of the solvent | CCn1c2ccc(C(=O)c3ccccc3C)cc2c2cc(/C(C)=N/OC(C)=O)ccc21 [Comparative Example 1, reference compound] |
| 50 or more grams in 100 g of the solvent | CC(=O)O/N=C(\CC(c1ccc(C(C/C(=N\OC(C)=O)c2ccccc2)N(OC(C)=O)C(C)=O)cc1)N(OC(C)=O)C(C)=O)c1ccccc1 (stereo not drawn) [Example 1] |
| 50 or more grams in 100 g of the solvent | CSc1ccc(C(C/C(=N\OC(C)=O)c2ccc(/C(CC(c3ccc(SC)cc3)N(OC(C)=O)C(C)=O)=N/OC(C)=O)cc2)N(OC(C)=O)C(C)=O)cc1 (stereo not drawn) [Example 2] |
| 50 or more grams in 100 g of the solvent | CCn1c2ccc(/C(CC(c3ccccc3)N(OC(C)=O)C(C)=O)=N/OC(C)=O)cc2c2cc(/C(CC(c3ccccc3)N(OC(C)=O)C(C)=O)=N/OC(C)=O)ccc21 (stereo not drawn) [Example 3] |
| 30 grams in 100 g of the solvent | CCn1c2ccc(/C(CC(c3cccs3)N(OC(C)=O)C(C)=O)=N/OC(C)=O)cc2c2cc(/C(CC(c3cccs3)N(OC(C)=O)C(C)=O)=N/OC(C)=O)ccc21 (stereo not drawn) [Example 4] |
| 50 or more grams in 100 g of the solvent | CCn1c2ccc(/C(CC(c3ccc(SC)cc3)N(OC(C)=O)C(C)=O)=N/OC(C)=O)cc2c2cc(/C(CC(c3ccc(SC)cc3)N(OC(C)=O)C(C)=O)=N/OC(C)=O)ccc21 (stereo not drawn) [Example 5] |

Same assay, conditions: solvent propylene glycol methyl ether acetate (PGMEA)

| Structure (SMILES) | Solubility in PGMEA |
| --- | --- |
| CCn1c2ccc(C(=O)c3ccccc3C)cc2c2cc(/C(C)=N/OC(C)=O)ccc21 [Comparative Example 1, reference compound] | 12 grams in 100 g of the solvent |
| CC(=O)O/N=C(\CC(c1ccc(C(C/C(=N\OC(C)=O)c2ccccc2)N(OC(C)=O)C(C)=O)cc1)N(OC(C)=O)C(C)=O)c1ccccc1 (stereo not drawn) [Example 1] | 100 or more grams in 100 g of the solvent |
| CSc1ccc(C(C/C(=N\OC(C)=O)c2ccc(/C(CC(c3ccc(SC)cc3)N(OC(C)=O)C(C)=O)=N/OC(C)=O)cc2)N(OC(C)=O)C(C)=O)cc1 (stereo not drawn) [Example 2] | 100 or more grams in 100 g of the solvent |
| CCn1c2ccc(/C(CC(c3ccccc3)N(OC(C)=O)C(C)=O)=N/OC(C)=O)cc2c2cc(/C(CC(c3ccccc3)N(OC(C)=O)C(C)=O)=N/OC(C)=O)ccc21 (stereo not drawn) [Example 3] | 100 or more grams in 100 g of the solvent |
| CCn1c2ccc(/C(CC(c3cccs3)N(OC(C)=O)C(C)=O)=N/OC(C)=O)cc2c2cc(/C(CC(c3cccs3)N(OC(C)=O)C(C)=O)=N/OC(C)=O)ccc21 (stereo not drawn) [Example 4] | 100 or more grams in 100 g of the solvent |
| CCn1c2ccc(/C(CC(c3ccc(SC)cc3)N(OC(C)=O)C(C)=O)=N/OC(C)=O)cc2c2cc(/C(CC(c3ccc(SC)cc3)N(OC(C)=O)C(C)=O)=N/OC(C)=O)ccc21 (stereo not drawn) [Example 5] | 100 or more grams in 100 g of the solvent |
